From article PMC8308721 (Pharmaceutics, 2021)
Where “and” joins values, the source holds several entries; their conditions need not be identical. Equal values may be shown once.

Assays:
[1] = Peptide stability in human cerebrospinal fluid (UPLC); assay type: in vitro ADME; conditions: pooled human cerebrospinal fluid, pooled human CSF, read-out: peptide recovered in CSF after 5 h of incubation
Description: The in vitro stability of peptides was assessed according to a previously described protocol with modifications. Peptides (3 g/L, 49 µL) dissolved in […] (DMSO/TWEEN 80/normal saline (5/5/90, v/v/v) were diluted with pooled mouse dipotassium ethylenediaminetetraacetic acid containing pooled plasma (Innovative Research, Novi, MI, USA) or pooled human cerebrospinal fluid (CSF) (both BioIVT, Westbury, NY, USA) to a total volume of 500 µL. The final peptide concentration was kept constant at 315 µmol/L in all experiments. The mixture was incubated (37 °C, 750 rpm; Thermomixer, Eppendorf AG, Hamburg, Germany) and an aliquot (95 µL) was taken at 0, 5, 15, 60, and 300 min. For peptide quantification, the sample was mixed with aqueous acetonitrile (90%, v/v, 300 µL) containing FA, 0.1% v/v and incubated on ice for 30 min. […] Samples were analyzed by ultra-performance liquid chromatography (UPLC).
An ACQUITY UPLC H-Class chromatography system (Waters, Milford, MA, USA) coupled on-line to a photodiode array detector (absorbance recorded at 214 nm, Waters) and to the electrospray ionization source on a mass spectrometer (QDa detector, Waters) operated in the positive ion mode was used. […] Quantities of the degraded peptides and resulting metabolites were estimated using peak areas of the UV signal at 214 nm relative to the initial peak areas (t = 0). […]

female CD-1 mice [2] = assay: Dependence study, Nlx-induced jumps; conditions: 8 days, Nlx 4 mg/kg i.p.
Description: Two hours after the last injection at 3 PM, mice received an i.p. injection of Nlx (4 mg/kg), after which they were immediately placed in a Plexiglas cylinder (height, 30 cm; diameter, 25 cm). The number of jumps induced by Nlx, defined as simultaneous removal of all four paws from the ground surface, were counted.

female CD-1 mice [3] = assay: Safety test in mice, escalating doses; assay type: in vivo, mouse
Excerpt: (§1) Throughout the eight-day duration of experiments investigating the development of physical dependence and tolerance, clinical health scores (CHS) of mice on a 5-point scale (0 normal and 5 highest severity) provided by the University of British Columbia Animal Care Committee were monitored. Scores were given in 5 categories (appearance (grooming, posture), behavior (gait, activity), local injection site skin appearance, neurological signs, and body weight). Based on the guidelines, mice with a score of 5 in any category or a cumulative score of >15, or body weight loss of >20% would be euthanized.
Mice were then monitored for mortality and clinical signs including respiratory activity, body weight, hydration, behavior (self-biting and circling), and pain assessment (Facial Grimace) to determine the maximum tolerated dose.

female CD-1 mice [4] = assay: Tolerance study, hot-plate after repeated dosing; assay type: in vivo, mouse; conditions: multidose tolerance and physical dependence tests, 5-point scale
Excerpt: as §1
A commercially available hot-plate analgesia meter consisting of a round aluminum surface with (25 cm diameter) from Harvard Apparatus (Holliston, MA, USA) was used. […] Thereafter, the baseline latency of each animal was measured on the hot surface (52.0 ± 0.1 °C, 30 s cut-off time to prevent tissue damage) until a nociceptive response was induced. […] The %MPE for each animal was calculated using this equation: %MPE = (LR − BR)/(MR − BR)100%, where LR, MR, and BR represent measured, maximum (30 s), and baseline (~5 s) response time, respectively. The AUC for each animal was calculated from the %MPE time courses using this equation: AUC = (%MPE(Tp1) + %MPE(Tp2))·(Tp2 − Tp1)/2, where Tp represents the time interval between adjacent time points on the curve. […]

[5] = Peptide stability in mouse plasma (UPLC); assay type: in vitro ADME; conditions: for Recovered Peptide after 1 h in Mouse Plasma [%]: CD-1 mouse plasma, 37 °C, esters recovered as the corresponding acid
Description: The in vitro stability of peptides was assessed according to a previously described protocol with modifications. Peptides (3 g/L, 49 µL) dissolved in […] (DMSO/TWEEN 80/normal saline (5/5/90, v/v/v) were diluted with pooled mouse dipotassium ethylenediaminetetraacetic acid containing pooled plasma (Innovative Research, Novi, MI, USA) or pooled human cerebrospinal fluid (CSF) (both BioIVT, Westbury, NY, USA) to a total volume of 500 µL. The final peptide concentration was kept constant at 315 µmol/L in all experiments. The mixture was incubated (37 °C, 750 rpm; Thermomixer, Eppendorf AG, Hamburg, Germany) and an aliquot (95 µL) was taken at 0, 5, 15, 60, and 300 min. For peptide quantification, the sample was mixed with aqueous acetonitrile (90%, v/v, 300 µL) containing FA, 0.1% v/v and incubated on ice for 30 min. After two centrifugation steps (21,100× g, 3 min, Sorvall Legend Micro 21R Centrifuge, Thermo Scientific, Waltham, MA, USA), the supernatant (300 µL) was collected, freeze-dried (FreeZone Triad Cascade Benchtop, Labcono, Kansas City, MO, USA), reconstituted in aqueous acetonitrile (4.5%, v/v) containing FA (0.1%, v/v), and stored at −20 °C. Samples were analyzed by ultra-performance liquid chromatography (UPLC).
An ACQUITY UPLC H-Class chromatography system (Waters, Milford, MA, USA) coupled on-line to a photodiode array detector (absorbance recorded at 214 nm, Waters) and to the electrospray ionization source on a mass spectrometer (QDa detector, Waters) operated in the positive ion mode was used. Separation relied on a BEH-C18 column (inner diameter: 1.1 mm; length: 50 mm; particle size: 1.7 µm, Waters) at a flow rate of 0.1 mL/min using a linear aqueous acetonitrile gradient in the presence of FA (0.1%, v/v). Ionization was carried out at a source temperature of 450 °C using a cone voltage of 10 V and a capillary voltage of 1.5 kV. Mass spectra were typically acquired for an m/z range from 50 to 1250 at a sampling rate of 2 points per second. Quantities of the degraded peptides and resulting metabolites were estimated using peak areas of the UV signal at 214 nm relative to the initial peak areas (t = 0). Metabolites were identified using mass spectrometry by detecting the singly charged molecular ions.

female CD-1 mice [6] = assay: Respiratory depression assay; assay type: in vivo, mouse
Description: The respiratory rate was assessed in awake mice lightly restrained in a well-ventilated 50 mL falcon tube with a darkened tip. Prior to the drug treatment, each animal was habituated in the tube for 30 min. The falcon tube was secured onto a stand facing lengthwise towards a video camera. […] Animals were recorded at selected time points for 10 min to measure the respiration rate.

female CD-1 mice [7] = assay: Hot-plate test; assay type: in vivo, mouse; conditions: for Antinociception (AUC0-5h, %MPE·h): s.c. 20 µmol/kg (~13 mg/kg), female CD-1 mice
Description: Animal use and procedures were in accordance with the guidelines of The University of British Columbia animal care committee and the Canadian Council for Animal Care (CCAC, Protocol code: A17-0128, approval date: 30 August 2018). Experiments involved adult female CD-1 mice (25–30 g) housed under a 12 h light/dark cycle and had ad libitum access to rodent chow and water. Mice were allowed an acclimatization period of at least one week in the animal facility before experiments. Subcutaneous (s.c.) or intraperitoneal (i.p.) injections of drugs or vehicles were administered to animals at a volume of 10 mL/kg. In the formalin foot assay, each mouse was used once and euthanized immediately upon completion of the experiment due to irreversible tissue damage in the injected paw.
A commercially available hot-plate analgesia meter consisting of a round aluminum surface with (25 cm diameter) from Harvard Apparatus (Holliston, MA, USA) was used. A day before the experiment mice were acclimatized for 5 min in a transparent Plexiglas cylinder (height, 30 cm; diameter, 25 cm) on the switched-off hot-plate apparatus. Thereafter, the baseline latency of each animal was measured on the hot surface (52.0 ± 0.1 °C, 30 s cut-off time to prevent tissue damage) until a nociceptive response was induced. The animal was immediately removed from the hot surface after licking, lifting, or fluttering of the hind paws was observed. Latency responses after treatment were obtained in the same way. The %MPE for each animal was calculated using this equation: %MPE = (LR − BR)/(MR − BR)100%, where LR, MR, and BR represent measured, maximum (30 s), and baseline (~5 s) response time, respectively. The AUC for each animal was calculated from the %MPE time courses using this equation: AUC = (%MPE(Tp1) + %MPE(Tp2))·(Tp2 − Tp1)/2, where Tp represents the time interval between adjacent time points on the curve. Data were plotted as mean ± SEM.

female CD-1 mice [8] = assay: Formalin foot assay; assay type: in vivo, mouse; conditions: morphine 10 mg/kg s.c.
Description: On the day of the experiment, mice were acclimatized to the experimental setup by putting them in darkened, non-transparent plexiglas cylinders (height, 20 cm; diameter, 9 cm) placed on a glass plane for 2 h. […] After successful injection, mice were immediately placed into cylinders and their behavior was monitored for 1 h. Video cameras (Lorex Technology, Markham, ON, Canada) underneath each animal were used to record the nociceptive responses defined as licking or biting at the formalin injected right paw. The accumulated licking and biting time of each animal was determined and recorded in 5 min bins. The total response time was plotted as early phase 1 from 0 to 5 min, and late phase 2 from 20 to 40 min after formalin injection.

mice = conditions: mouse, in vivo; cited from earlier work
C57BL6 mice = conditions: cited from earlier work
[9] = day six of treatment; cited from earlier work
[10] = morphine s.c. 10 mg/kg, hot-plate

CC(C)C[C@H](NC(=O)[C@H](Cc1ccccc1)NC(=O)CNC(=O)CNC(=O)[C@H](Cc1ccc(O)cc1)NC(=O)C(C)(C)C)C(=O)O [KK-103]
remaining at 5 h, 315 µmol/L [1]: > 95% | physical dependence, Nlx-induced jumps in first 10 min (female CD-1 mice [2]; KK-103 13 mg/kg twice daily): not a single jump was observed | abnormal behaviors / clinical scores at maximum deliverable dose (female CD-1 mice [3]; s.c. 650 mg/kg): did not show any signs of abnormal behaviors | maximum deliverable dose (safe) (female CD-1 mice [3]; s.c., limited by solubility): 650 mg/kg | clinical health score (CHS) (female CD-1 mice [4]): 0 | Recovered Peptide after 1 h in Mouse Plasma [%] [5]: 93 ± 1% | extrapolated plasma half-life ([5]; mouse plasma in vitro, extrapolated from 5 h incubation): 37 h | remaining at 5 h, 315 µmol/L ([5]; mouse, pooled mouse K2EDTA plasma, 5 h, plasma, read-out: intact peptide remaining in plasma after 5 h of incubation): > 90% | increase of plasma half-life over Leu-ENK ([5]; plasma in vitro): ~ 90 fold and 90 fold | respiration rate versus vehicle (female CD-1 mice [6]; KK-103 13 mg/kg s.c., 30 to 240 min): comparable to that of mice treated with vehicle

COC(=O)[C@H](CC(C)C)NC(=O)[C@H](Cc1ccccc1)NC(=O)CNC(=O)CNC(=O)[C@H](Cc1ccc(O)cc1)NC(=O)C(C)(C)C [KK-102]
increase of antinociception AUC compared to Leu-ENK (female CD-1 mice [7]; hot-plate, s.c. ~13 mg/kg): 8 fold | Antinociception (AUC0-5h, %MPE·h) (female CD-1 mice [7]; hot-plate): 112 %MPE·h and 112 ± 24 %MPE·h | Recovered Peptide after 1 h in Mouse Plasma [%] [5]: 94 ± 5% and 94 ± 3% | half-life ([5]; mouse, plasma): 2.5 min

CC(C)C[C@H](NC(=O)[C@H](Cc1ccccc1)NC(=O)CNC(=O)CNC(=O)[C@@H](N)Cc1ccc(O)cc1)C(=O)O [Leu-ENK, Leu-Enkephalin]
Antinociception (AUC0-5h, %MPE·h) (female CD-1 mice [7]; hot-plate): 14 %MPE·h and 14 ± 6 %MPE·h | peak antinociception (female CD-1 mice [7]; s.c. 13 mg/kg, hot-plate): ~ 10 %MPE | time of decline of antinociception to baseline (female CD-1 mice [7]; s.c. 13 mg/kg, hot-plate): 1.5 h | time of peak antinociception post-injection (female CD-1 mice [7]; s.c. 13 mg/kg, hot-plate): 1 h | remaining at 5 h, 315 µmol/L [1]: > 80% | intact peptide remaining in plasma after 5 h of incubation ([5]; 5 h, plasma): undetectable | Recovered Peptide after 1 h in Mouse Plasma [%] [5]: 23 ± 3% and 23 ± 2%

COC(=O)[C@H](CC(C)C)NC(=O)[C@H](Cc1ccccc1)NC(=O)CNC(=O)CNC(=O)[C@H](Cc1ccc(O)cc1)NC(=O)C1CCCCC1 [KK-112]
Antinociception (AUC0-5h, %MPE·h) (female CD-1 mice [7]; hot-plate): 51 ± 10 %MPE·h | Recovered Peptide after 1 h in Mouse Plasma [%] [5]: 62 ± 4%

CN1CC[C@]23c4c5ccc(O)c4O[C@H]2[C@@H](O)C=C[C@H]3[C@H]1C5 [morphine]
antinociception at 2 h (female CD-1 mice [7]; morphine s.c. 10 mg/kg, 2 h): ~ 10 %MPE | maximum antinociception (female CD-1 mice [7]; [10]): 87 %MPE | time to maximum antinociception (female CD-1 mice [7]; [10]): ≤ 15 min | reduction of paw licking and biting time compared to control, phase 1 (female CD-1 mice [8]; phase 1 (0–5 min)): 30% | nociceptive response, phase 2 (female CD-1 mice [8]; phase 2 (20–40 min)): completely diminished the nociceptive response | decrease of breathing rate (mice): 1.7 fold | time of peak effect (C57BL6 mice): 20 min | physical dependence, Nlx-induced withdrawal (female CD-1 mice [2]; morphine 10 mg/kg twice daily): significant withdrawal syndromes | residual effect of morphine [9]: approximately 30% | decrease of respiratory rate compared with vehicle (female CD-1 mice [6]; morphine 10 mg/kg s.c., 30 min post-injection): 56%
